# Measured values from US11976083B2, “Inhibitors of peptidylarginine deiminases” (Gilead Sciences, Inc., priority 2020, dated 2024).
# Target: T1, human PAD4 (Homo sapiens, UniProt Q9UM07)
# T1 construct: human PAD4 (NM_012387), A2-P663, was PCR amplified; His-SUMO (N, cleaved yes); made in house; host or cells: E. coli BL21(DE3)
# Test: In vitro PAD4 BAEE biochemical assay
# Conditions: BAEE substrate 3 mM, 5 nM PAD4, 2 mM calcium chloride; geometric mean of multiple experiments
# Summary of the method: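 Recombinant human PAD4 (5 nM final) with 2 mM CaCl2 was preincubated with compound 30 min at 25 °C in MOPS buffer pH 7.6, then reacted with 3 mM BAEE for 2 h at 25 °C. After EDTA stop, released ammonia was detected by o-phthalaldehyde/DTT fluorescence (ex 405/em 535 nm); IC50 from four-parameter fit, geometric mean.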
# T1 sequence (Q9UM07 2-663): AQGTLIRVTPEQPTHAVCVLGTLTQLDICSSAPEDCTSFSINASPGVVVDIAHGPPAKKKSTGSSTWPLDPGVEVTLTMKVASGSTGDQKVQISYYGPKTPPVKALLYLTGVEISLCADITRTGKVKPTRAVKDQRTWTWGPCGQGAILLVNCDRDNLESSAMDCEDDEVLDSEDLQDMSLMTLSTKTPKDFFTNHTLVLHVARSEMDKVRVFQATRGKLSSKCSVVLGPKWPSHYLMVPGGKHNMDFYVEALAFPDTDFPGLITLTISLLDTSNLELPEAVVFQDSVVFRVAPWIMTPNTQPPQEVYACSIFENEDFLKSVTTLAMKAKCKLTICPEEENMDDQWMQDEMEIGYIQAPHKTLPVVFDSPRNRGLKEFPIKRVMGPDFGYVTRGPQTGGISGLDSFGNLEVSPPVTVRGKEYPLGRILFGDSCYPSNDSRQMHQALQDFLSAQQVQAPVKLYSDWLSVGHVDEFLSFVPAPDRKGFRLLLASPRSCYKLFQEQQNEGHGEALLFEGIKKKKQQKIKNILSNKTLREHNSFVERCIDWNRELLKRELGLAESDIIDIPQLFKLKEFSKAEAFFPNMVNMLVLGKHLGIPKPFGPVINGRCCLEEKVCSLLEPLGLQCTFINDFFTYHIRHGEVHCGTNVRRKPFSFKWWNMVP
row,SMILES,IC50
1,"C[C@H]1NC(=O)c2ccccc2CCCCCn2c(-c3nc4cc(C(=O)N[C@H]5CNCC[C@@H]5F)c(F)cc4n3C3CC3)cc3ccc1nc32 [Example 347, 1-cyclopropyl-6-fluoro-~{N}-[(3~{S},4~{S})-4-fluoro-3-piperidyl]-2-[(2~{R})-2-methyl-4-oxo-3,16,22-triazatetracyclo[14.5.2.0^{5,10}.0^{19,23}]tricosa-1(22),5,7,9,17,19(23),20-heptaen-17-yl]benzimidazole-5-carboxamide]",51 nM
2,"COc1cc(C(=O)N2[C@H]3CC[C@@H]2[C@H](N)C3)cc2nc(-c3cc4ccc5nc4n3CCCCCCCCCC(=O)N[C@@H]5C)c(C)n12 [Example 287, (13~{R})-19-[7-[(1~{R},2~{R},4~{S})-2-amino-7-azabicyclo[2.2.1]heptane-7-carbonyl]-5-methoxy-3-methyl-imidazo[1,2-a]pyridin-2-yl]-13-methyl-1,12,21-triazatricyclo[12.5.2.0^{17,20}]henicosa-14(21),15,17(20),18-tetraen-11-one]",55 nM
3,"C[C@H]1NC(=O)C(C)(C)CCCCCCn2c(-c3nc4cc(C(=O)N[C@H]5CNCC[C@@H]5F)c(F)cc4n3C)cc3ccc1cc32 [Example 565, 6-fluoro-~{N}-[(3~{S}, 4~{S})-4-fluoro-3-piperidyl]-1-methyl-2-[(11~{R})-8,8,11-trimethyl-9-oxo-1,10-diazatricyclo[10.5.2.0^ {15,18}]nonadeca-12(19),13,15(18),16-tetraen-17-yl] benzimidazole-5-carboxamide]",41 nM
4,"COc1cc(C(=O)N2[C@H]3CC[C@@H]2[C@H](N)C3)cc2nc(-c3cc4ccc5nc4n3CCCCCCC(C)(C)C(=O)N[C@@H]5C)c(C)n12 [Example 121, (11~{R})-17-[7-[(1~{R},2~{R},4~{S})-2-amino-7-azabicyclo[2.2.1]heptane-7-carbonyl]-5-methoxy-3-methyl-imidazo[1,2-a]pyridin-2-yl]-8,8,11-trimethyl-1,10,19-triazatricyclo[10.5.2.0^{15,18}]nonadeca-12(19),13,15(18),16-tetraen-9-one]",46 nM
5,"COc1cc(C(=O)N2CCC[C@@H](N)C2)cc2nc(-c3cc4ccc5nc4n3CCCCOCCC(=O)N3CCC[C@H]53)n(C)c12 [Example 108, (2~{R})-16-[5-[(3~{R})-3-aminopiperidine-1-carbonyl]-7-methoxy-1-methyl-benzimidazol-2-yl]-10-oxa-6,15,21-triazatetracyclo[13.5.2.0^{2,6}.0^{18,22}] docosa-1(21),16,18(22),19-tetraen-7-one]",150 nM
6,"C[C@H]1NC(=O)c2ccc(Cl)nc2CC[C@H]2C[C@H]2Cn2c(-c3nc4cc(C(=O)N5C[C@H](N)[C@@H]6CC[C@H]5C6)cc(F)c4n3C3CC3)cc3ccc1nc32 [Example 710, (3~{R),5~{S},16~{R})-22-[5-[(1~{S},4~{R},5~{R})-4-amino-2-azabicyclo[3.2.1]octane-2-carbonyl]-1-cyclopropyl-7-fluoro-benzimidazol-2-yl]-10-chloro-16-methyl-1,9,15,24-tetrazapentacyclo[15.5.2.0^ {3,5}.0^{8,13}.0^{20,23}] tetracosa-8(13),9,11,17(24), 18,20(23),21-heptaen-14-one]",18 nM
7,"COc1cc(C(=O)N2[C@H]3CC[C@@H]2[C@H](N)C3)cc2nc(-c3cc4ccc5nc4n3CCCCCC[C@H](OC)C(=O)N[C@@H]5C)c(C)n12 (single isomer, unassigned) [Example 335, (8˜{S},11˜{R})-17-[7-[(1˜{R},2˜{R},4˜{S})-2-amino-7-azabicyclo[2.2.1]heptane-7-carbonyl]-5-methoxy-3-methyl-imidazo[1,2-a]pyridin-2-yl]-8-methoxy-11-methyl-1,10,19-triazatricyclo[10.5.2.0^{15,18}]nonadeca-12(19),13,15(18),16-tetraen-9-one]",32 nM
8,"COc1cc(C(=O)N2C[C@H](N)[C@@H]3CC[C@H]2C3)cc2nc(-c3cc4ccc5nc4n3CC(F)(F)CCCCC3(CC3)C(=O)N[C@@H]5C)n(C3CC3)c12 [Example 940, (11~{R})-17-[5-[(1~{S},4~{R}, 5~{R})-4-amino-2-azabicyclo [3.2.1]octane-2-carbonyl]-1-cyclopropyl-7-methoxy-benzimidazol-2-yl]-3,3-difluoro-11-methyl-spiro[1,10,19-triazatricyclo [10.5.2.0^{15,18}]nonadeca-12(19),13,15(18),16-tetraene-8,1′-cyclopropane]-9-one]",80 nM

# Now from value to compound:
row,IC50,SMILES
1,268 nM,"COc1cc(C(=O)N2[C@H]3CC[C@@H]2[C@H](N)C3)cc2nc(-c3cc4ccc5nc4n3CCCCOc3ccccc3C(=O)N[C@@H]5C)n(C)c12 [Example 41, (2~{R})-17-[5-[(1~{R),2~{R},4~{S})-2-amino-7-azabicyclo[2.2.1]heptane-7-carbonyl]-7-methoxy-1-methyl-benzimidazol-2-yl]-2-methyl-11-oxa-3,16,22-triazatetracyclo[14.5.2.0^{5,10}.0^{19,23}] tricosa-1(22),5,7,9,17,19(23),20-heptaen-4-one]"
2,26 nM,"COc1cc(C(=O)N2C[C@H](N)[C@@H]3CC[C@H]2C3)cc2nc(-c3cc4ccc5nc4n3CCCCCc3cc(Cl)ncc3C(=O)N[C@@H]5C)n(C)c12 [Example 665, (2~{R})-17-[5-[(1~{S),4~{R}, 5~{R})-4-amino-2-azabicyclo[3.2.1]octane-2-carbonyl]-7-methoxy-1-methyl-benzimidazol-2-yl]-8-chloro-2-methyl-3,7,16,22-tetrazatetracyclo[14.5.2.0^ {5,10).0^{19,23}]tricosa-1(22),5(10),6,8,17,19(23),20-heptaen-4-one]"
3,82 nM,"COc1cc(C(=O)N2CCC[C@@H](N)C2)cc2nc(-c3cc4ccc5nc4n3CCCCCCC3(CC3)C(=O)N[C@@H]5C)n(C)c12 [Example 233, (11~{R})-17-[5-[(3~{R})-3-aminopiperidine-1-carbonyl]-7-methoxy-1-methyl-benzimidazol-2-yl]-11-methyl-spiro[1,10,19-triazatricyclo[10.5.2.0^{15,18}]nonadeca-12(19),13,15(18),16-tetraene-8,1′-cyclopropane]-9-one]"
4,12 nM,"COc1cc(C(=O)N2C[C@H](N)[C@@H]3CC[C@H]2C3)cc2nc(-c3cc4ccc5nc4n3CCCCCc3cc(Cl)ncc3C(=O)N[C@@H]5C)n(C3CC3)c12 [Example 818, (2~{R})-17-[5-[(1~{S},4~{R}, 5~{R})-4-amino-2-azabicyclo[3.2.1]octane-2-carbonyl]-1-cyclopropyl-7-methoxy-benzimidazol-2-yl]-8-chloro-2-methyl-3,7,16,22-tetrazatetracyclo[14.5.2.0^ {5,10).0^{19,23}]tricosa-1(21),5(10),6,8,17,19,22-heptaen-4-one]"
5,76 nM,"COc1cc(C(=O)N2CC[C@H]3CCN[C@H]3C2)cc2nc(-c3cc4ccc5nc4n3CCCCCCC(C)(C)C(=O)N[C@@H]5C)n(C)c12 [Example 79, (11~{R})-17-[5-[(3~{a}~{R},7~{a}~{R})-1,2,3,3~{a},4,5,7,7~{a}-octahydropyrrolo[2,3-c]pyridine-6-carbonyl]-7-methoxy-1-methyl-benzimidazol-2-yl]-8,8,11-trimethyl-1,10,19-triazatricyclo[10.5.2.0^{15,18}]nonadeca-12(19),13,15(18),16-tetraen-9-one]"
6,68 nM,"COc1cccc2c1C(=O)N[C@H](C)c1ccc3cc(-c4nc5cc(C(=O)N6CC[C@@H](OC)[C@@H](N)C6)cc(OC)c5n4C)n(c3n1)CCCCC2 [Example 854, (2~{R})-17-[5-[(3~{S},4~{R})-3-amino-4-methoxy-piperidine-1-carbonyl]-7-methoxy-1-methyl-benzimidazol-2-yl]-6-methoxy-2-methyl-3,16,22-triazatetracyclo[14.5.2.0^ {5,10}.0^{19,23}]tricosa-1(22),5(10),6,8,17,19(23),20-heptaen-4-one]"
7,32 nM,"[2H]C([2H])([2H])O[C@@H]1CCN(C(=O)c2cc(OC)c3c(c2)nc(-c2cc4ccc5nc4n2CCCCCc2cncc(F)c2C(=O)N[C@@H]5C)n3C)C[C@@H]1N [Example 659, (2~{R})-17-[5-[(3~{S),4~{R})-3-amino-4-(trideuteriomethoxy)piperidine-1-carbonyl]-7-methoxy-1-methyl-benzimidazol-2-yl]-6-fluoro-2-methyl-3,8,16,22-tetrazatetracyclo[14.5.2.0^ {5,10}.0^{19,23}] tricosa-1(22),5,7,9,17,19(23), 20-heptaen-4-one]"
8,28 nM,COc1cc(C(=O)N2C[C@H](N)[C@@H]3CC[C@H]2C3)cc2nc(-c3cc4ccc5nc4n3CCC[C@H]3C[C@@H]3c3ccccc3C(=O)N[C@@H]5C)n(C)c12 [Example 893]
9,120 nM,"CO[C@@H]1CCN(C(=O)c2cc(F)c3c(c2)nc(-c2cc4ccc5nc4n2CCCCCC[C@@H](c2cccc(Cl)n2)C(=O)N[C@@H]5C)n3C2CC2)C[C@@H]1N [Example 873, (8~{S},11~{R})-17-[5-[(3~{S}, 4~{R})-3-amino-4-methoxy-piperidine-1-carbonyl]-1-cyclopropyl-7-fluoro-benzimidazol-2-yl]-8-(6-chloro-2-pyridyl)-11-methyl-1,10,19-triazatricyclo[10.5.2.0^{15,18}] nonadeca-12(19), 13,15(18),16-tetraen-9-one]"
10,137 nM,"COc1cc(C(=O)N2C[C@H](N)C[C@H](O)C2)cc2nc(-c3cc4ccc5nc4n3CCCCCCC(C)(C)C(=O)N[C@@H]5C)n(C)c12 [Example 536, (11~{R})-17-[5-[(3~{R},5~{S})-3-amino-5-hydroxy-piperidine-1-carbonyl]-7-methoxy-1-methyl-benzimidazol-2-yl]-8,8,11-trimethyl-1,10,19-triazatricyclo[10.5.2.0^ {15,18}]nonadeca-12(19), 13,15(18),16-tetraen-9-one]"
